Tests used:
E12 [1] = target: T1, E12 (Homo sapiens, UniProt P15923); assay: Native polyacrylamide gel binding of tritiated tetracycline to protein; conditions: 10-30-fold molar excess of tritiated tetracycline, PBS, room temperature 30 minutes, 8% native gel autoradiogram
T1 construct: expressed in transfected cells
T1 sequence (P15923 1-654): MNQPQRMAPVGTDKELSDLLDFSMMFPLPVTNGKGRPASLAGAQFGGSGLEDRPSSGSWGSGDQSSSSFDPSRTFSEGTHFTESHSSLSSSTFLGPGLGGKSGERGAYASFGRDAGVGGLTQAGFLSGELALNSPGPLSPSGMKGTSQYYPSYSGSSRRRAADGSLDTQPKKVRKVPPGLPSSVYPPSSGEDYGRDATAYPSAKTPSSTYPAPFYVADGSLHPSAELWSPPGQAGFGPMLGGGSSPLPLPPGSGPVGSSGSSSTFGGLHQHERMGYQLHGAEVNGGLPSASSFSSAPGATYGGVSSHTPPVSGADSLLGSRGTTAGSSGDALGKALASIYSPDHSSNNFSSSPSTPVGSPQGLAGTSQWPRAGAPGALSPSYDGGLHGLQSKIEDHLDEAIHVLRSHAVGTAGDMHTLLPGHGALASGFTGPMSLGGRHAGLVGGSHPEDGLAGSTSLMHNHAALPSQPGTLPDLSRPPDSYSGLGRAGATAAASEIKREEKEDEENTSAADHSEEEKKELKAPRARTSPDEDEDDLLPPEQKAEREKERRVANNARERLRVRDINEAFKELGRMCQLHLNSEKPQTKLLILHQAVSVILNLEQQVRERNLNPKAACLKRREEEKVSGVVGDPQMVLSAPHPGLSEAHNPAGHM
Experimental: (§1) Radiolabeled tetracycline (tritiated) was mixed with purified Id1 protein and other proteins separately to permit contact between the labeled tetracycline and the proteins. […] The complexes could then be visualized in an autoradiogram of the gel, e.g., exposure of the gel to x-ray film.
(§2) In this experiment, a 10-30-fold molar excess of tritiated tetracycline was added to the indicated proteins separately in 10 Tl reaction tube containing one of the proteins and phosphate buffered saline at physiological pH. Proteins used in this experiment were:
(§3) The mixtures were incubated at room temperature for 30 minutes. Bromophenol blue was added to each sample at 0.01% (v/v). The samples were then electrophoresed on an 8% native polyacrylamide gel.
(§4) After electrophoresing the samples, the gel was dried and exposed to autoradiographic film for 12 hours to make an autoradiogram of the gel.

E47 = target: T2, E47 (Homo sapiens, UniProt P15923); assay: as above; conditions: 10-30-fold molar excess of tritiated tetracycline, PBS, room temperature 30 minutes, 8% native gel autoradiogram
T2 sequence (P15923 1-651 isoform P15923-2): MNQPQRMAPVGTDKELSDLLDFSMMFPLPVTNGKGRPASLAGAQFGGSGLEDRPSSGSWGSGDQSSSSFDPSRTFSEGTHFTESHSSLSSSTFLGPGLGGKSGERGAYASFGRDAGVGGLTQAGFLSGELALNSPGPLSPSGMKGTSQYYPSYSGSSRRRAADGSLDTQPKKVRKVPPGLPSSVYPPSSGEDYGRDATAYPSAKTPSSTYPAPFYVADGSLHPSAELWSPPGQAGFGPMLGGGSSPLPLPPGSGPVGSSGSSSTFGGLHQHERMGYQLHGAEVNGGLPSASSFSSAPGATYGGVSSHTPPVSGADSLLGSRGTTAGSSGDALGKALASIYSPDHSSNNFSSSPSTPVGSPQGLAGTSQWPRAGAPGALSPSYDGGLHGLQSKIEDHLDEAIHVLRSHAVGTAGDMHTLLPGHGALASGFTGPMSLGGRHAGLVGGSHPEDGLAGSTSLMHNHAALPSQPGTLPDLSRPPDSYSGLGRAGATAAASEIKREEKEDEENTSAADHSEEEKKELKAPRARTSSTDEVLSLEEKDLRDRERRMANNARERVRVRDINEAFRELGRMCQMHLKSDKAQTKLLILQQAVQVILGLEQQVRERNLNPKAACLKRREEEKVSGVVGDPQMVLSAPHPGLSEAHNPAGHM
Experimental: as §1, §2, §3, §4

[2] = tested on: Hsp90 (heat shock protein 90); assay: as above; conditions: 10-30-fold molar excess of tritiated tetracycline, PBS, room temperature 30 minutes, 8% native gel autoradiogram
Experimental: as §1, §2, §3, §4

[3] = tested on: Id old, an old preparation of Id in which the protein's conformation is perturbed; assay: as above; conditions: 10-30-fold molar excess of tritiated tetracycline, PBS, room temperature 30 minutes, 8% native gel autoradiogram
Experimental: as §1, §2, §3, §4

[4] = tested on: Id1 new, the normal protein (native Id1); assay: as above; conditions: 10-30-fold molar excess of tritiated tetracycline, PBS, room temperature 30 minutes, 8% native gel autoradiogram
Experimental: as §1, §2, §3, §4

MyoD = target: T3, MyoD (Homo sapiens, UniProt P15172); assay: as above; conditions: 10-30-fold molar excess of tritiated tetracycline, PBS, room temperature 30 minutes, 8% native gel autoradiogram
T3 sequence (P15172 1-320): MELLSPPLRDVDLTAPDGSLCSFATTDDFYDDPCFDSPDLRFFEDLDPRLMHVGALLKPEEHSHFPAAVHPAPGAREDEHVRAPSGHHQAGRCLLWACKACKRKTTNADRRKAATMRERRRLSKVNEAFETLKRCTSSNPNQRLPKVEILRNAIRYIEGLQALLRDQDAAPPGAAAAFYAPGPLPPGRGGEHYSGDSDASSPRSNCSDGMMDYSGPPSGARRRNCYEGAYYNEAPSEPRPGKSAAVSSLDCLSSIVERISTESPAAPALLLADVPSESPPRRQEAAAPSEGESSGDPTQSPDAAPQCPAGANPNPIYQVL
Experimental: as §1, §2, §3, §4

Id1 [5] = target: T4, Id1 (Homo sapiens, UniProt P41134); assay: Gel shift: Id1 antagonism of E47 binding to radiolabeled DNA; assay type: biochemical
T4 sequence (P41134 1-155): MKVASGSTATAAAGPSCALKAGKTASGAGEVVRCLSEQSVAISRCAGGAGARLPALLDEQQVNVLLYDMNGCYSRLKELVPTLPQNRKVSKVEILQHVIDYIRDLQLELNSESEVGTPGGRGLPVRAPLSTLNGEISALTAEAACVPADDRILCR
Experimental: Purified Id1 and its target protein E12 are mixed to together in vitro, and the ability of Id1 to antagonize DNA binding capacity of E12 is measured. To measure E12 DNA binding activity, the mixtures were incubated with radiolabeled DNA sequences to which E12 binds and the protein/DNA complexes resolved on a native polyacrylamide gel as described [Benezra, 1994 #463].
In this experiment, 50 nanograms of E47 protein (described in Example I) was present in reaction mixtures of 100, 200, and 400 nanograms of Id1, designated +, ++, and +++ respectively in FIG. 2. Tetracycline was added to the reactions as indicated (+) to about 200 Tg/ml final concentration. Radiolabeled DNA to which E47 binds was then introduced in each mixture. […] Each of the mixtures was permitted to incubate at room temperature for about 30 minutes. Then, the mixtures were electrophoresed in an 8% native polyacrylamide gel as described in Benezra, 1994.
After electrophoresing the samples, the gel was dried and exposed to autoradiographic film to make an autoradiograph of the gel.

Id1 [6] = target: T4, Id1; assay: 4R-TK-CAT reporter assay with E12 and Id1 plasmids in mammalian culture cells; assay type: cell-based
Source text: (§5) Plasmids capable of expressing proteins when introduced into mammalian culture cells were used to test the activity of those proteins. In the assay depicted below, a plasmid that contains sequences to which the E12 protein binds upstream of a reporter gene (4R-TK-CAT) ix mixed with an E12 encoding plasmid and an Id plasmid to see if Id can inhibit the ability of E12 protein to bind and activate the reporter gene, in a similar to that described in Pesce, 1993 #163. If E12 binds to its sequence in the 4R-TK-CAT vector, it causes expression of the chloramphenical acetyltransferase (CAT) gene. The protein product of the CAT gene has an enzymatic activity that can be quantified. Uptake of the various plasmids was normalized to the expression of luciferase activity from a separate plasmid added in equal amounts to all cultures.

E12 [7] = target: T1, E12; assay: 4R-TK-CAT reporter assay with E12 plasmid alone in mammalian culture cells; assay type: cell-based; conditions: E12 plasmid without Id1, tetracycline 100
Source text: as §5

Compound: CN(C)[C@@H]1C(O)=C(C(N)=O)C(=O)[C@@]2(O)C(O)=C3C(=O)c4c(O)cccc4[C@@](C)(O)[C@H]3C[C@@H]12 [tetracycline, [4S-(4I,5aI,5aI,6J,12aI)]-4-(Dimethylamino)-1,4,4a,5,5a,6-11,12a-octahydro-3,6, 10,12,12a-peiztaiydroxy-6-methyl-1,11-dioxo-2-naphthacenecarboxamide]
- Binding of radiolabeled tetracycline to E12 (lane 2) (E12 [1]): did not bind
- Binding of radiolabeled tetracycline to E47 (lane 6) (E47): did not bind
- Binding of radiolabeled tetracycline to Hsp90 (lane 1) [2]: did not bind
- Binding of radiolabeled tetracycline to old Id having a perturbed conformation (lane 3) [3]: no radiolabeled tetracycline was detected
- Binding of radiolabeled tetracycline to native Id1 (lane 4) [4]: bound to native Id1
- Binding of radiolabeled tetracycline to MyoD (lane 5) (MyoD): did not bind
- E47/DNA complex band intensity with tetracycline (lane 4) versus without (lane 3) (Id1 [5]; 50 nanograms E47, 100 nanograms Id1, tetracycline about 200 Tg/ml, same said for lanes 6 vs 5 and 8 vs 7 (200, 400 nanograms Id1)): much more intense
- Effect on Id activity, i.e. dimerizing with a protein member of the HLH super family, in vitro (Id1 [5]; tetracycline about 200 Tg/ml, 50 nanograms E47, 100-400 nanograms Id1): clearly inhibits Id activity
- Effect of tetracycline on Id1 inhibition of E12 (4R-TK-CAT reporter), Id1 high (Id1 [6]; Id1 10:1 molar excess over E12, tetracycline 100): no longer effective
- E12 binding activity (4R-TK-CAT reporter) in presence of tetracycline, Id1 (low) (Id1 [6]; Id1 plasmid at 3:1 molar excess of E12, tetracycline 100): partially restored
- Effect of tetracycline on E12 activation of 4R-TK-CAT (E12 [7]): not effected
